Data published in patent US7138361B2, “Herbicidal heterocycles” (E. I. du Pont de Nemours and Company, priority 2000, dated 2006).

Tests used:
Type in all cases: in vivo
[1] = system: blackgrass (Alopecurus myosuroides); test: Test B postemergence
In short: (§1)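 Post-treatment, species sat 13–15 days under greenhouse conditions before visual scoring against controls, 0 (no effect) through 100 (complete control). Application preemergence to sown seeds or postemergence at 1- to 4-leaf stage, using a non-phytotoxic solvent/surfactant formulation.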

[2] = system: corn (Zea mays); test: Test B postemergence
In short: as §1

[3] = system: velvetleaf (Abutilon theophrasti); test: Test B postemergence; settings: Rate 125 g/ha, scale 0 to 100, 0 no effect, 100 complete control
In short: as §1

[4] = system: wheat (Triticum aestivum); test: Test B postemergence; settings: Rate 125 g/ha, scale 0 to 100, 0 no effect, 100 complete control
In short: as §1

[5] = system: wild oat (Avena fatua); test: Test B postemergence; settings: Rate 125 g/ha, scale 0 to 100, 0 no effect, 100 complete control
In short: as §1

[6] = system: Sunflower; test: Test C preemergence; settings: Rate 125 g/ha; scale 0 to 100, 0 no effect, 100 complete control
[7] = system: Surinam grass (Brachiaria decumbens); test: Test C preemergence
In short: (§2)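 Visual 0–100 rating vs controls (0 = no effect, 100 = complete control) at 12–14 d, greenhouse. Compounds in non-phytotoxic solvent + surfactant; pre: sprayed after seeding; post: 1–4-leaf plants, 2–18 cm.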

[8] = system: bermudagrass (Cynodon dactylon); test: Test C preemergence
In short: as §2

[9] = system: corn (Zea mays); test: Test C preemergence
In short: as §2

[10] = system: crabgrass (Digitaria sanguinalis); test: Test C preemergence
In short: as §2

[11] = system: giant foxtail (Setaria faberii); test: Test C preemergence
In short: as §2

[12] = system: goosegrass (Eleusine indica); test: Test C preemergence
In short: as §2

[13] = system: johnsongrass (Sorghum halepense); test: Test C preemergence
In short: as §2

[14] = system: lambsquarters (Chenopodium album); test: Test C preemergence
In short: as §2

[15] = system: morningglory (Ipomoea hederacea); test: Test C preemergence
In short: as §2

[16] = system: pigweed (Amaranthus retroflexus); test: Test C preemergence
In short: as §2

[17] = system: soybean (Glycine max); test: Test C preemergence
In short: as §2

[18] = system: velvetleaf (Abutilon theophrasti); test: Test C preemergence
In short: as §2

[19] = system: woolly cupgrass (Eriochloa villosa); test: Test C preemergence
In short: as §2

[20] = system: yellow nutsedge (Cyperus esculentus); test: Test C preemergence
In short: as §2

[21] = Rate 125 g/ha, scale 0 to 100, 0 no effect, 100 complete control
[22] = Rate 500 g/ha, scale 0 to 100, 0 is no effect, 100 is complete control, 13 to 15 days
[23] = preemergence, Rate 62 g/ha, scale 0 to 100
[24] = preemergence, Rate 500 g/ha, visual evaluation after 12 to 14 days
[25] = preemergence, Rate 250 g/ha, scale 0 to 100, 0 no effect, 100 complete control

CCC(C)c1ccn(C2CCN(c3ccc(Cl)c(OC)c3)C2=O)n1 (stereo not shown) [Compound 119]
Plant response rating, Blackgrass [1, 21]: 0
Plant response rating, Blackgrass [1, 22]: 0
Plant response rating, Corn [2, 21]: 0
Plant response rating, Corn [2, 22]: 0
Plant response rating, Velvetleaf [3]: 30
Plant response rating, Wheat [4]: 20
Plant response rating, Wild Oat [5]: 0
Plant response rating, Sunflower [6]: 40
Plant response rating, Surinam grass [7, 21]: 100
Plant response rating, Surinam grass [7, 23]: 100
Plant response rating (0 to 100), Surinam grass [7, 24]: 100
Plant response rating, Surinam grass [7, 25]: 100
Plant response rating, Bermudagrass [8, 21]: 100
Plant response rating, Bermudagrass [8, 23]: 100
Plant response rating (0 to 100 where 0 is no effect and 100 is complete control), Bermudagrass [8, 24]: 100
Plant response rating, Bermudagrass [8, 25]: 100
Plant response rating, Corn [9, 21]: 30
Plant response rating, Corn [9, 23]: 30
Plant response rating (0 to 100), Corn [9, 24]: 90
Plant response rating, Corn [9, 25]: 60
Plant response rating, Crabgrass [10, 21]: 100
Plant response rating, Crabgrass [10, 23]: 100
Plant response rating (0 to 100), Crabgrass [10, 24]: 100
Plant response rating, Crabgrass [10, 25]: 100
Plant response rating, Foxtail, Giant [11, 21]: 100
Plant response rating, Foxtail, Giant [11, 23]: 50
Plant response rating (0 to 100), Foxtail, Giant [11, 24]: 100
Plant response rating, Foxtail, Giant [11, 25]: 90
Plant response rating, Goosegrass [12, 21]: 100
Plant response rating, Goosegrass [12, 23]: 100
Plant response rating (0 to 100), Goosegrass [12, 24]: 100
Plant response rating, Goosegrass [12, 25]: 100
Plant response rating, Johnsongrass [13, 21]: 100
Plant response rating, Johnsongrass [13, 23]: 90
Plant response rating (0 to 100), Johnsongrass [13, 24]: 100
Plant response rating, Johnsongrass [13, 25]: 100
Plant response rating, Lambsquarters [14, 21]: 100
Plant response rating, Lambsquarters [14, 23]: 100
Plant response rating (0 to 100), Lambsquarters [14, 24]: 100
Plant response rating, Lambsquarters [14, 25]: 100
Plant response rating, Morningglory [15, 21]: 90
Plant response rating, Morningglory [15, 23]: 60
Plant response rating (0 to 100), Morningglory [15, 24]: 100
Plant response rating, Morningglory [15, 25]: 100
Plant response rating, Pigweed [16, 21]: 50
Plant response rating, Pigweed [16, 23]: 50
Plant response rating (0 to 100), Pigweed [16, 24]: 100
Plant response rating, Pigweed [16, 25]: 90
Plant response rating, Soybean [17, 21]: 80
Plant response rating, Soybean [17, 23]: 60
Plant response rating (0 to 100), Soybean [17, 24]: 100
Plant response rating, Soybean [17, 25]: 100
Plant response rating, Velvetleaf [18, 21]: 100
Plant response rating, Velvetleaf [18, 23]: 60
Plant response rating (0 to 100), Velvetleaf [18, 24]: 100
Plant response rating, Velvetleaf [18, 25]: 100
Plant response rating, Cupgrass, Woolly [19, 21]: 100
Plant response rating, Cupgrass, Woolly [19, 23]: 100
Plant response rating (0 to 100), Cupgrass, Woolly [19, 24]: 100
Plant response rating, Cupgrass, Woolly [19, 25]: 100
Plant response rating, Nutsedge [20, 21]: 20
Plant response rating, Nutsedge [20, 23]: 0
Plant response rating (0 to 100), Nutsedge [20, 24]: 30
Plant response rating, Nutsedge [20, 25]: 30
